The target of one series is T1, Gadd45β/MKK7 interaction (Homo sapiens, UniProt O14733).
T1 construct: The GST-fused full-length kinase was coated for 16 h at 4° C., at a concentration of 42 nM; made in house
T1 sequence (O14733 1-419): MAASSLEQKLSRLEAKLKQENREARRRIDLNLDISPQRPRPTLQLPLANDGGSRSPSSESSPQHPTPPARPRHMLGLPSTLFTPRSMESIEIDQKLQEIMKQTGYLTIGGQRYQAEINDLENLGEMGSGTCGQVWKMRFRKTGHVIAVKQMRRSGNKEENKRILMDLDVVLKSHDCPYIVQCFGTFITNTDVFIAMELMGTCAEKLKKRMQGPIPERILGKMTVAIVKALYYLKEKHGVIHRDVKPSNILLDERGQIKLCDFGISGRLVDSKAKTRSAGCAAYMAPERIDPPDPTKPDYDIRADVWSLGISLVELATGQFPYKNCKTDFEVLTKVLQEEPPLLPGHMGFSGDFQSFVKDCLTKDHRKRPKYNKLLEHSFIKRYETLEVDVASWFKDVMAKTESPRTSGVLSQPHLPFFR
The series is described as follows: ELISA competition assay of biotin-hGadd45β binding to coated GST-MKK7. The method in brief:
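GST-MKK7 (42 nM) coated in Tris pH 7.5 buffer, 16 h, 4 °C; biotin-hGadd45β (21 nM) added with competitor peptides (0.01–100 nM), 1 h, 37 °C. Streptavidin-HRP/o-phenylenediamine read at 490 nm; binding expressed as % of signal without competitor.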
In general terms: ELISA stands for enzyme-linked immunosorbent assay.

The test system of series [1] is primary multiple myeloma cells. The series is described as follows: Trypan blue exclusion assay in primary multiple myeloma cells from patients. It counts as cell-based, human. Particulars: 1 μM or 10 μM, 48 hrs, 5 patients. The text has this: To confirm that Z-/mDTPs retain cytotoxic activity in primary multiple myeloma cells, we examined the effects of Z-DTP1 and Z-DTP2 on the survival of multiple myeloma cells isolated from patients with a clinical diagnosis of multiple myeloma. To this end, multiple myeloma cells were purified from bone marrow (BM) aspirates of multiple myeloma patients by […], using CD138-conjugated magnetic beads, essentially as described in the reference by Hideshima T. et all 2006, Blood 107: 4053-4062. The purity of multiple myeloma cells was confirmed by flow cytometric, using and CD138 and anti-CD45 antibodies, also essentially in accordance with the procedure described in the reference by Hideshima T. et all 2006, Blood 107: 4053-4062. Purified CD138^+ BM cells were then cultured at a concentration of 4×10^5 cells/ml in wells of 96-well plates and treated with either 1 μM or 10 μM of Z-DTP1, Z-DTP2 or Z-DNC for 48 hrs. Cell viability was measured by cell counting using trypan blue exclusion assays (FIGS. 14A, 14B, 14C, 14D, and 14E).

Series [2] concerns sh-NS-expressing ARH-77 cells.
Series [3] deals with sh-MKK7-expressing ARH-77 cells.
Series [4] has as its system U266, KMS-11, NCI-H929, BJAB and U937 tumour cell lines. The series is described as follows: [3H]thymidine incorporation assay in tumour cell lines at 10 μM. It counts as cell-based, human. The conditions noted are these: up to 144 hrs, result in words. Here is the method: All experiments were performed in triplicate.
In general terms: Incorporation of labelled thymidine or its analogues reports DNA synthesis.

[5] abbreviates: Table V, FIG. 3C, read-out: IC50 ELISA.

Here are results for five compounds from patent US8993717B2, “Gadd45beta targeting agents” (Imperial Innovations Limited, priority 2009, dated 2015).

Structures are written as SMILES. Read-outs that look alike come from different tables or passages of the source. Square brackets hold non-standard residues; d marks the D form. Peptide text beside a SMILES is read from it. * marks the point of attachment. Cbz = O=C(OCc1ccccc1)*

The IC50 is the midpoint of a concentration-inhibition curve.

As to `NC(=O)[C@@H](Cc1ccccc1)NC(=O)[C@@H](Cc1c[nH]cn1)NC(=O)[C@@H](CC(=O)O)NC(=O)[C@@H](Cc1ccc(O)cc1)NC(=O)OCc1ccccc1` [Compound 1, Z-Tyr-Asp-His-Phe-NH2] (Cbz-[dY][dD][dH][dF]-NH2), the IC50 at Gadd45β/MKK7 interaction (Table V, peptides 0.01-10 nM, read-out: IC50 ELISA) is 0.22 nM; in series [2], 1400 nM; in series [3] it was above 10000 nM. Also, the “cytotoxic activity in primary multiple myeloma cells” value in series [1] is “strong cytotoxic activity”.

Turning to `CC(=O)N[C@H](Cc1ccc(O)cc1)C(=O)N[C@H](CC(=O)O)C(=O)N[C@H](Cc1c[nH]cn1)C(=O)N[C@H](Cc1ccccc1)C(N)=O` [DTP1, Acetyl-(D-Tyr)-(D-Asp)-(D-His)-(D-Phe)-NH2] (Ac-[dY][dD][dH][dF]-NH2), on Gadd45β/MKK7 interaction (setting [5]), the IC50 is 0.22 nM. Also, the “tumoricidal/cytotoxic activity in tumour cell lines” value (shortened to “tumoricidal/cytotoxic activity”) in series [4] is listed as “not”.

Regarding `CC(=O)N[C@H](Cc1ccc(O)cc1)C(=O)N[C@H](CCC(=O)O)C(=O)N[C@H](CCCNC(=N)N)C(=O)N[C@H](Cc1ccccc1)C(N)=O` [DTP2, Acetyl-(D-Tyr)-(D-Glu)-(D-Arg)-(D-Phe)-NH2] (Ac-[dY][dE][dR][dF]-NH2), the IC50 at Gadd45β/MKK7 interaction (setting [5]) is 0.19 nM. Further, the “tumoricidal/cytotoxic activity” value in series [4] is on record as “inactivity”.

For the compound `CC(=O)N[C@H](Cc1ccc(O)cc1)C(=O)N[C@H](CCCNC(=N)N)C(=O)N[C@H](Cc1ccccc1)C(N)=O` [Compound 17, Ac-D-Tyr-D-Arg-D-Phe-NH2] (Ac-[dY]-[dR]-[dF]-NH2), the IC50 at Gadd45β/MKK7 interaction was 0.157 nM; in series [2], 303 nM; in series [3], above 10000 nM. The “cytotoxic activity in primary multiple myeloma cells” value in series [1] is given as “Strong cytotoxic activity”.

On to `N=C(N)NCCC[C@@H](NC(=O)[C@@H](CCC(=O)O)NC(=O)[C@@H](Cc1ccc(O)cc1)NC(=O)OCc1ccccc1)C(=O)N[C@H](Cc1ccccc1)C(N)=O` [Compound 9, Z-D-Tyr-D-Glu-D-Arg-D-Phe-NH2] (Cbz-[dY][dE][dR][dF]-NH2), for which the “tumoricidal/cytotoxic activity” value in series [4] is reported as “high cytotoxic activity”. In series [1], the “cytotoxic activity in primary multiple myeloma cells” value is listed as “strong cytotoxic activity”. Also, the results for the 50% inhibitory concentration (IC50) in series [2] and in series [3] were 302 nM and above 10000 nM, respectively.
